Measurements: patent publication US5340821A, “Composition and method for treating Sjoegren syndrome disease” (Snow Brand Milk Products Co., Ltd., priority 1992, dated 1994)
Where a name gives a salt, the structure may show the parent alone.

Key:
[1] = background statement; cited from earlier work
tear secretion = assay: Tear secretion effects in dogs; type: in vivo; conditions: four weeks, 4 female beagle dogs
Description: (§1) 2-Methylspiro(1,3-oxathiolane-5,3')quinuclidine hydrochloride of formula (II), in amounts of 0, 0.5, 3, and 18 mg/kg, was orally administered to female beagle dogs (weight: 7.1-9.6 kg) of four groups, each consisting of four dogs, one time a day and for four weeks.

saliva secretion [2] = assay: Saliva secretion effects in dogs; type: in vivo; conditions: four weeks, 4 female beagle dogs
Description: as §1

saliva secretion [3] = assay: Saliva secretion effects in patients suffering from a Sjoegren syndrome disease (Saxon test); type: in vivo, human
Text: (§2) Five subjects diagnosed to be suffering from a Sjoegren syndrome disease according to the diagnosis criteria made by the study team at the Ministry of Health and Welfare (M. Ofuji, Study Report Summary for 1977, the results for the year 1977 of Diagnostic criteria of Sjoegren's syndrome (Ministry of Health and Welfare's Sjoegren Investigational Research Group), M. Ofugi, Research Report of Ministry of Health and Welfare's specific disease Sjoegren Investigational Research Group in 1977, 3-6, 1978). To each subject was administered said hydrochloric acid addition salt of quinuclidine of formula (II) at a dose of 10 mg, three times a day, each time one hour before meal, for 4 weeks (the first course); 20 mg, three times a day, each time one hour before meal, for 4 weeks (the second course); and 30 mg, three times a day, each time one hour before meal, for 4 weeks (the third course). The Saxon test (Kohler P. F., Winter M. E., Arthritis Rheum, 28, 1128-1132 (1985)) for measuring the saliva secretion was performed before the start of the first course, and after the completion of the first, second, and third courses.

[4] = test system: Sjoegren syndrome disease; assay: Observation of the patient (Sjoegren syndrome disease); type: in vivo, human
Text: as §2

saliva secretion [5] = assay: Saliva secretion effects in human; type: in vivo; conditions: 10 tested subjects
Description: 2-Methylspiro(1,3-oxathiolane-5,3')quinuclidine hydrochloride of formula (II), in amounts of 5, 10, 20, 30, 40, 50, 60, and 70 mg, was orally administered to five men and five women, aged 20-50 years.

[6] = Toxicity Test (LD50, observation of mice for two weeks); parameters: species or system ICR (CD-1) mice; conditions: mouse, in vivo
Description: Groups of ICR (CD-1) male and female mice (age: 5 weeks, weight of male mice: 22.0-33.8 g, weight of female mice: 18.8-27.3 g), each consisting of eight mice, were used for the test. 2-methylspiro(1,3-oxathiolane-5,3')quinuclidine hydrochloride of formula (II) was orally, intravenously, or subcutaneously administered at different (high and low) doses. LD50 (50% lethal dose) was determined by the observation of mice for two weeks thereafter.

## CC(C[N+](C)(C)C)OC(N)=O (stereo not shown) [bethanechol]
[1]
  side effects: comprehensive side effects such as headache, hot flush, palpitation, intrathoracic agony, nausea, emesis, diarrhea, abdominal discomfort, pyrosis, stomach discomfort, diaphoresis, and the like

## CC1OC2(CS1)CN1CCC2CC1 (stereo not shown) [2-methylspiro(1,3-oxathiolane-5,3')quinuclidine hydrochloride]
Tear secretion; 0.5 mg/kg/day oral
  Number of animals secreted tear: 0 animals
  Number of animals secreted tear (%): 0%
Tear secretion; 3.0 mg/kg/day oral
  Number of animals secreted tear: 1 animals
  Number of animals secreted tear (%): 25%
Tear secretion; 18.0 mg/kg/day oral
  Number of animals secreted tear: 4 animals
  Number of animals secreted tear (%): 100%
Saliva secretion [2]; 0.5 mg/kg/day oral
  Number of animals secreted saliva: 0 animals
  Number of animals secreted saliva (%): 0%
Saliva secretion [2]; 3.0 mg/kg/day oral
  Number of animals secreted saliva: 3 animals
  Number of animals secreted saliva (%): 75%
Saliva secretion [2]; 18.0 mg/kg/day oral
  Number of animals secreted saliva: 4 animals
  Number of animals secreted saliva (%): 100%
Saliva secretion [3]; subject 1, after first course (10 mg three times a day)
  Ratio of secreted saliva to the value before the administration in the first course: 1.66
Saliva secretion [3]; subject 1, after first course (10 mg three times a day, 4 weeks), before 0.65 g
  Amount of secreted saliva: 1.08 g
Saliva secretion [3]; subject 1, after second course (20 mg three times a day)
  Ratio of secreted saliva to the value before the administration in the first course: 3.15
Saliva secretion [3]; subject 1, after second course (20 mg three times a day, 4 weeks), before 0.65 g
  Amount of secreted saliva: 2.05 g
Saliva secretion [3]; subject 1, after third course (30 mg three times a day)
  Ratio of secreted saliva to the value before the administration in the first course: 6.00
Saliva secretion [3]; subject 1, after third course (30 mg three times a day, 4 weeks), before 0.65 g
  Amount of secreted saliva: 3.90 g
Saliva secretion [3]; subject 2, after first course (10 mg three times a day)
  Ratio of secreted saliva to the value before the administration in the first course: 1.70
Saliva secretion [3]; subject 2, after first course (10 mg three times a day, 4 weeks), before 0.73 g
  Amount of secreted saliva: 1.24 g
Saliva secretion [3]; subject 2, after second course (20 mg three times a day)
  Ratio of secreted saliva to the value before the administration in the first course: 3.48
Saliva secretion [3]; subject 2, after second course (20 mg three times a day, 4 weeks), before 0.73 g
  Amount of secreted saliva: 2.54 g
Saliva secretion [3]; subject 2, after third course (30 mg three times a day)
  Ratio of secreted saliva to the value before the administration in the first course: 6.16
Saliva secretion [3]; subject 2, after third course (30 mg three times a day, 4 weeks), before 0.73 g
  Amount of secreted saliva: 4.50 g
Saliva secretion [3]; subject 3, after first course (10 mg three times a day)
  Ratio of secreted saliva to the value before the administration in the first course: 1.91
Saliva secretion [3]; subject 3, after first course (10 mg three times a day, 4 weeks), before 0.76 g
  Amount of secreted saliva: 1.45 g
Saliva secretion [3]; subject 3, after second course (20 mg three times a day)
  Ratio of secreted saliva to the value before the administration in the first course: 2.05
Saliva secretion [3]; subject 3, after second course (20 mg three times a day, 4 weeks), before 0.76 g
  Amount of secreted saliva: 1.56 g
Saliva secretion [3]; subject 3, after third course (30 mg three times a day)
  Ratio of secreted saliva to the value before the administration in the first course: 4.80
Saliva secretion [3]; subject 3, after third course (30 mg three times a day, 4 weeks), before 0.76 g
  Amount of secreted saliva: 3.65 g
Saliva secretion [3]; subject 4, after first course (10 mg three times a day)
  Ratio of secreted saliva to the value before the administration in the first course: 1.51
Saliva secretion [3]; subject 4, after first course (10 mg three times a day, 4 weeks), before 0.43 g
  Amount of secreted saliva: 0.65 g
Saliva secretion [3]; subject 4, after second course (20 mg three times a day)
  Ratio of secreted saliva to the value before the administration in the first course: 3.80
Saliva secretion [3]; subject 4, after second course (20 mg three times a day, 4 weeks), before 0.43 g
  Amount of secreted saliva: 1.63 g
Saliva secretion [3]; subject 4, after third course (30 mg three times a day)
  Ratio of secreted saliva to the value before the administration in the first course: 6.72
Saliva secretion [3]; subject 4, after third course (30 mg three times a day, 4 weeks), before 0.43 g
  Amount of secreted saliva: 2.89 g
Saliva secretion [3]; subject 5, after first course (10 mg three times a day)
  Ratio of secreted saliva to the value before the administration in the first course: 1.31
Saliva secretion [3]; subject 5, after first course (10 mg three times a day, 4 weeks), before 0.45 g
  Amount of secreted saliva: 0.59 g
Saliva secretion [3]; subject 5, after second course (20 mg three times a day)
  Ratio of secreted saliva to the value before the administration in the first course: 2.16
Saliva secretion [3]; subject 5, after second course (20 mg three times a day, 4 weeks), before 0.45 g
  Amount of secreted saliva: 0.97 g
Saliva secretion [3]; subject 5, after third course (30 mg three times a day)
  Ratio of secreted saliva to the value before the administration in the first course: 3.27
Saliva secretion [3]; subject 5, after third course (30 mg three times a day, 4 weeks), before 0.45 g
  Amount of secreted saliva: 1.47 g
[4]; subject 1
  Observation of the patient: Saliva secretion: increased
[4]; subject 2
  Observation of the patient: A dry feeling of oral cavity and irritation in the eyes: improved
[4]; subject 3
  Observation of the patient: The need for drinking water when taking food: eliminated
[4]; subject 4
  Observation of the patient: Incidence of being awaken due to dry mouth at midnight: improved
Saliva secretion [5]; 5 mg oral
  Subjects showing promoted saliva secretion: 0 subjects
Saliva secretion [5]; 10 mg oral
  Subjects showing promoted saliva secretion: 0 subjects
Saliva secretion [5]; 20 mg oral
  Subjects showing promoted saliva secretion: 2 subjects
Saliva secretion [5]; 30 mg oral
  Subjects showing promoted saliva secretion: 8 subjects
Saliva secretion [5]; 40 mg oral
  Subjects showing promoted saliva secretion: 10 subjects
Saliva secretion [5]; 50 mg oral
  Subjects showing promoted saliva secretion: 10 subjects
Saliva secretion [5]; 60 mg oral
  Subjects showing promoted saliva secretion: 10 subjects
Saliva secretion [5]; 70 mg oral
  Subjects showing promoted saliva secretion: 10 subjects
[6]; iv, female mice
  LD50 at 336 h: 40.8 mg/kg
[6]; iv, male mice
  LD50 at 336 h: 45.2 mg/kg
[6]; po, female mice
  LD50 at 336 h: 167 mg/kg
[6]; po, male mice
  LD50 at 336 h: 139 mg/kg
[6]; sc, Subcutaneous, female mice
  LD50 at 336 h: 78.1 mg/kg
[6]; sc, Subcutaneous, male mice
  LD50 at 336 h: 65 mg/kg
